Results taken from the NIST ThermoML archive (doi:10.1021/je400491p).
± gives the expanded uncertainty stated by the source.

Details: 101.33 kPa, Liquid; for viscosity: Capillary tube (Ostwald / Ubbelohde) method; for mass density: Pycnometric method

OCCO [1,2-ethanediol]
Details	mass density [kg/m3]	viscosity [mPa·s]
313.15 K	1098.9 ± 1.3	9.309 ± 0.11
323.15 K	1091.7 ± 1.3	6.818 ± 0.079
333.15 K	1084.2 ± 1.3	5.027 ± 0.059
343.15 K	1078.1 ± 1.3	3.915 ± 0.046
